Measured values taken from patent US20110038948A1, “Methods of Reducing the Production of Reactive Oxygen Species and Methods of Screening or Identifying Compounds and Compositions that Reduce the Production of Reactive Oxygen Species” (UNIVERSITY OF TENNESSEE RESEARCH FOUNDATION, priority 2005, published 2011).

Columns and labels:
3T3-L1 adipocytes [1] = assay: Cell proliferation / DNA synthesis in cultured adipocytes (CyQUANT); assay type: cell-based, mouse; conditions: 48 hours
Method: 3T3-L1 preadipocytes were incubated at a density of 8000 cells/cm^2 (10 cm^2 dish) and grown in Dulbecco's modified Eagle's medium (DMEM) containing 10% FBS and antibiotics (adipocyte medium) at 37° C. in 5% CO2 in air. Confluent preadipocytes were induced to differentiate with a standard differentiation medium consisting of DMEM-F10 (1:1, vol/vol) medium supplemented with 1% FBS, 1 μM dexamethasone, IBMX (0.5 mM) and antibiotics (1% Penicillin-Streptomycin). Preadipocytes were maintained in this differentiation medium for 3 days and subsequently cultured in adipocyte medium. Cultures were re-fed every 2-3 days to allow 90% of cells to reach full differentiation before conducting chemical treatment. Chemicals were freshly diluted in adipocyte medium before treatment. Cells were washed with fresh adipocyte medium, re-fed with medium containing the different treatments, and incubated at 37° C. in 5% CO2 in air before analysis. Cell viability was measured via trypan blue exclusion. Cells were plated in DMEM with different treatment in duplicate in 96-well plates. After 48 h, a CyQUANT Cell Proliferation Kit (Molecular Probes, Eugene, Oreg.) was used following the manufacturer's protocol. a microplate fluorometer (Packard Instrument Company, Inc., Downers Grove, Ill.) was used to measure CyQUANT fluorescence. Cell viability was determined by Trypan blue exclusion examination.

3T3-L1 adipocytes [2] = assay: Mitochondrial membrane potential (JC-1); assay type: cell-based, mouse; conditions: H2O2 100 nmol/L, 48 hours
Method: 3T3-L1 preadipocytes were incubated at a density of 8000 cells/cm^2 (10 cm^2 dish) and grown in Dulbecco's modified Eagle's medium (DMEM) containing 10% FBS and antibiotics (adipocyte medium) at 37° C. in 5% CO2 in air. Confluent preadipocytes were induced to differentiate with a standard differentiation medium consisting of DMEM-F10 (1:1, vol/vol) medium supplemented with 1% FBS, 1 μM dexamethasone, IBMX (0.5 mM) and antibiotics (1% Penicillin-Streptomycin). Preadipocytes were maintained in this differentiation medium for 3 days and subsequently cultured in adipocyte medium. Cultures were re-fed every 2-3 days to allow 90% of cells to reach full differentiation before conducting chemical treatment. Chemicals were freshly diluted in adipocyte medium before treatment. […] Cell viability was measured via trypan blue exclusion.
Mitochondrial membrane potential was analyzed fluorometrically with a lipophilic cationic dye JC-1 (5,5′,6,6′-tetrachloro-1,1′,3,3′-tetraethylbenzimidazol carbocyanine iodide) using a mitochondrial potential detection kit (Biocarta, San Diego, Calif.). Mitochondrial potential was determined as the ratio of red fluorescence (excitation 550 nm, emission 600 nm) and green fluorescence (excitation 485 nm, emission 535 nm) using a fluorescence microplate reader.

IL-6 [3] = assay: IL-6 expression in 3T3-L1 adipocytes; assay type: cell-based, mouse
Method: 3T3-L1 pre-adipocytes were incubated at a density of 8000 cells/cm^2 (10 cm^2 dish) and grown in Dulbecco's modified Eagle's medium (DMEM) containing 10% FBS and antibiotics (adipocyte medium) at 37° C. in 5% CO2 in air. Confluent pre-adipocytes were induced to differentiate with a standard differentiation medium consisting of DMEM-F10 (1:1, vol/vol) medium supplemented with 1% fetal bovine serum (FBS), 1 μM dexamethasone, isobutylmethylxanthine (IBMX) (0.5 mM) and antibiotics (1% Penicillin-Streptomycin). Pre-adipocytes were maintained in this differentiation medium for 3 days and subsequently cultured in adipocyte medium. Cultures were re-fed every 2-3 days to allow 90% cells to reach fully differentiation before conducting chemical treatment.
Cells were incubated in serum free medium overnight before chemical treatment. Chemicals were freshly diluted in adipocyte medium before treatment. […] Cell viability was measured via trypan blue exclusion.
Adipocyte and muscle 18s, TNFα, IL-6, IL-8, IL-15 and adiponectin were quantitatively measured using a smart cycler real-time PCR system (Cepheid, Sunnyvale, Calif.) with a TaqMan 1000 Core Reagent Kit (Applied Biosystems, Branchburg, N.J.). […] Reactions of quantitative RT-PCR for standards and unknown samples were also performed according to the instructions of Smart Cycler System (Cepheid, Sunnyvale, Calif.) and TaqMan Real Time PCR Core Kit (Applied Biosystems, Branchburg, N.J.). The mRNA quantitation for each sample was further normalized using the corresponding 18s quantitation. […]
Adipocyte and muscle 18s, CD14, TNFα, MIP, M-CSF, IL-6 and MCP-1 were quantitatively measured using a Smart Cycler Real Time PCR System (Cepheid, Sunnyvale, Calif.) with a TaqMan 1000 Core Reagent Kit (Applied Biosystems, Branchburg, N.J.). […] Reactions of quantitative RT-PCR for standards and unknown samples were also performed according to the instructions of Smart Cycler System (Cepheid, Sunnyvale, Calif.) and TaqMan Real Time PCR Core Kit (Applied Biosystems, Branchburg, N.J.). […]

IL-6 [4] = assay: IL-6 expression in RAW 264 macrophages; assay type: cell-based; conditions: co-culture with differentiated 3T3-L1 adipocytes
Method: RAW 264 macrophages and 3T3-L1 preadipocytes (American Type Culture Collection) were incubated at a density of 8000 cells/cm2 (10 cm2 dish) and grown in Dulbecco's modified Eagle's medium (DMEM) containing 10% FBS and antibiotics (adipocyte medium) at 37° C. in 5% CO2 in air. Confluent 3T3-L1 preadipocytes were induced to differentiate with a standard differentiation medium consisting of DMEM-F10 (1:1, vol/vol) medium supplemented with 1% FBS, 1 μM dexamethasone, IBMX (0.5 mM) and antibiotics (1% Penicillin-Streptomycin). Preadipocytes were maintained in this differentiation medium for 3 days and subsequently cultured in adipocyte medium. […]
Cells were washed with fresh adipocyte medium, re-fed with medium containing the indicated treatments, and incubated at 37° C. in 5% CO2 for 48 hours before analysis. Cell viability was measured via trypan blue exclusion.
Human adipocytes (Zen-Bio, Inc.), 3T3-L1 adipocytes, RAW264 macrophages were obtained and co-cultured by using transwell inserts with 0.4 μm porous membranes (Corning) to separate adipocytes and macrophages. All data are expressed as mean±SEM. Data were evaluated for statistical significance by analysis of one-way or two-way variance (ANOVA; means with different letter differ, p<0.05). […]

| Compound | increase in total DNA of cultured cells (3T3-L1 adipocytes [1]; H2O2 100 nmol/L, p<0.001) [%] | increase in mitochondrial potential (3T3-L1 adipocytes [2]) [%] | increase in IL-6 expression (IL-6 [3]; 100 nmol/L H2O2, 48 h, p<0.001) [%] | effect on glucose induced DNA synthesis (3T3-L1 adipocytes [1]; compound plus glucose 30 mmol/L) | effect on IL-6 expression (IL-6 [3]; 10 nmol/L 1α, 25-(OH)2-D3, 48 h) | effect on IL-6 expression (IL-6 [3]; calcitriol 10 nmol/L, 48 hours (Example 4)) | effect on IL-6 expression in macrophages (IL-6 [4]) |
| --- | --- | --- | --- | --- | --- | --- | --- |
| OO [H2O2, hydrogen peroxide] | 39 | 72 | 167 |  |  |  |  |
| C=C1/C(=C\C=C2/CCC[C@]3(C)[C@@H]([C@H](C)CCCC(C)(C)O)CC[C@@H]23)C[C@@H](O)C[C@@H]1O [calcitriol, 1,25-(OH)2-D3] |  |  |  | augmented | markedly increased | markedly stimulate | further enhanced |
